Columns and labels:
[1] = biological target: T1, GmITPK1 (Glycine max, UniProt A7X657); assay: InsP6 kinase activity assay; assay type: biochemical; settings: 1 mM ATP, pH 7.2, 25 °C
T1 sequence (A7X657 1-339): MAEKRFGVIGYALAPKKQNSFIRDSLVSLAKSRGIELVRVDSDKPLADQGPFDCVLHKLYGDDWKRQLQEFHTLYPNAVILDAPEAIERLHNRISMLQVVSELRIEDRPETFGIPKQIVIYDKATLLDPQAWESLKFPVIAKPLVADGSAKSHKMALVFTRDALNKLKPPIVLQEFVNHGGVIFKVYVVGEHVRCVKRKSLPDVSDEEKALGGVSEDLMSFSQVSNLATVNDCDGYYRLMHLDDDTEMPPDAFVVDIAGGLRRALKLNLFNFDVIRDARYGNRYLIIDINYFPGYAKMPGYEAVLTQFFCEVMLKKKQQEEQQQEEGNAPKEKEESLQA

[2] = biological target: T2, GmITPK2 (Glycine max, UniProt A7X665); assay: Ins; assay type: biochemical; settings: 1 mM ADP, pH 7.2, 25 °C
T2 sequence (A7X665 1-315): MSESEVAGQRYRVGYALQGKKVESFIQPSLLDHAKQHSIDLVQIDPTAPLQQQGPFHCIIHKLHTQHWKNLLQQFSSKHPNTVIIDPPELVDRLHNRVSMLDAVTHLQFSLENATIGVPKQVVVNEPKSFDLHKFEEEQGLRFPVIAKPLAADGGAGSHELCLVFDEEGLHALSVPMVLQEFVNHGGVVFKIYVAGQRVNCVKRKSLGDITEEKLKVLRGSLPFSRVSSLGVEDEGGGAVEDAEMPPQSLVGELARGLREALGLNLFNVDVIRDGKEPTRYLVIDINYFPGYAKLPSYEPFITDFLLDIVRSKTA

Structure (SMILES) | InsP6 kinase activity assay [1] | Ins(1,3,4,5,6)P5 phosphatase activity assay [2]
O=P(O)(O)O[C@H]1[C@H](OP(=O)(O)O)[C@@H](OP(=O)(O)O)[C@H](OP(=O)(O)O)[C@@H](OP(=O)(O)O)[C@H]1OP(=O)(O)O [InsP6] | recombinant His6MBP-GmITPK1 is an active InsP6 kinase | –
O=P(O)(O)O[C@@H]1[C@@H](OP(=O)(O)O)[C@H](OP(=O)(O)O)[C@H](O)[C@H](OP(=O)(O)O)[C@H]1OP(=O)(O)O [Ins(1,3,4,5,6)P5] | – | GmITPK2 exhibited the higher activity
